Earlier results, collected in EP0475894A1, “Gemfibrozil formulations” (WARNER-LAMBERT COMPANY, priority 1990, dated 1992).

Details: particularly in a highly acidic medium

Structure (SMILES): Cc1ccc(C)c(OCCCC(C)(C)C(=O)O)c1 [Gemfibrozil, 5-(2,5-dimethylphenoxy)-2,2-dimethylpentanoic acid]
- solubility in water: very poor solubility in water
